Data reported in US20020137781A1, “Preparation and use of enantiomer-pure 2,4-disubstituted oxazolines” (priority 1999, published 2002).
Values joined by “and” are separate entries in the source; they are usually repeats but may differ in a detail not shown here. Equal values may be shown once.

Test system: Dermanyssus gallinae
Test: Comparative in vitro effect on Dermanyssus gallinae
Conditions: for Type of activity: at the EC100 of the same table line; for EC100 (minimum dosage to reach 100% mortality): fed adult female mites, evaluated after 5 days
Method: 15 fed adult female mites of the genus Dermanyssus gallinae fixed on a plastic adhesive film are brought into contact with 50 μl of an aqueous suspension or emulsion of the test substance. The test is carried out with concentrations of 32, 10, 3.2, 1.0, 0.32 to 0.1 ppm. After drying, the film is stuck onto a glass disc. This creates a kind of air bubble around each mite, the lower surface of which is formed by the glass disc and the upper surface by a bulging of the adhesive film. This bubble contains sufficient air for the mite to avoid suffocating. After 5 days, the effect of the test substance is evaluated with the aid of a stereo-microscope by assessing the effect on mortality, egg deposition, egg quality, hatching rate, pupation rate, and development of protonymphs according to the following 4 criteria:
1. if 9 to 10 mites are dead, this indicates a lethal effect (M);
3. if 2 or more mites survive and produce eggs, but no larvae hatch from these eggs and no protonymphs develop, this indicates a development-inhibiting effect (H);
4. if 2 or more mites survive and lay the usual number of normal eggs, from which larvae hatch and develop into protonymphs, this indicates no activity.

Row | Structure (SMILES) | concentration that completely inhibits the development of protonymphs (after 5 days) [ppm] | type of effect (points 1-4) (after 5 days) | Type of activity | EC100 (minimum dosage to reach 100% mortality) [ppm] | concentration to reach an activity of type 1 (activity of type 1) | concentration to reach a considerable efficacy (only activity of type 3) (activity of type 3) | Type of activity (listed as Enantiomer B) | type of effect (points 1-4) at concentrations up to 10 ppm (concentrations up to 10 ppm) | EC100 (minimum dosage to reach 100% mortality) (listed as Enantiomer B)
1 | Fc1cccc(F)c1C1=NC(c2ccc(-c3ccc(C(F)(F)F)cc3)cc2)CO1 (racemic) [Racemate, 2-(2,6-difluorophenyl)-4-(4′-trifluoromethylbiphenyl-4-yl)-4,5-dihydrooxazole, reference compound] | ≥ 0.02 | 1 | 1 | 0.2 | – | – | – | – | –
2 | Fc1cccc(F)c1C1=NC(c2ccc(-c3ccc(C(F)(F)F)cc3)cc2)CO1 (single isomer, unassigned) [1.2, 2-(2,6-difluoro-phenyl)-4-(4′-trifluoromethylbiphenyl-4-yl)-4,5-dihydro-oxazole] | – | – | – | – | at least 32 ppm | at least 20 ppm | 3) and 1 | 4 | 20.0 ppm and 32.0 ppm
